Reference: patent US8778871B2 (Takeda Pharmaceutical Company Limited, priority 2004, dated 2014)
Non-standard residues stand in square brackets, D forms with d. Residues, ends and D or L forms follow the SMILES beside them. *: point of attachment. Propanoyl(3-(3-pyridyl)) = O=C(CCc1cccnc1)*; Arg(Me) = CNC(=N)NCCC[C@H](N)C(=O)O; d4Pal = N[C@H](Cc1ccncc1)C(=O)O; azaGly = NNC(=O)O

What was measured:
hOT7T175 = molecular target: T1, hOT7T175 (Homo sapiens, UniProt Q969F8, L364H); format: cell-based; conditions: hOT7T175/CHO, FLIPR, evaluation for 40 seconds after initiation of the reaction
T1 construct: expressed in transfected cells
Procedure: The intracellular Ca ion level-increasing activity was measured using FLIPR as in TEST EXAMPLE 2.

[1] = Induction of ovulation in immature rat using metastin derivatives; format: in vivo; conditions: for progesterone level compared with hCG administration / dose to be administered for induction of ovulation equivalent to hCG / number of oocytes in average per rat: eCG-primed immature female Wistar rats; for dose to be administered for induction of ovulation equivalent to hCG: s.c.; for blood progesterone level: relative to Group A (hCG)
Procedure: Equine chorionic gonadotropin (eCG, serotropin, Dainippon Pharmaceutical Co., Ltd.) was dissolved in saline (Otsuka Pharmaceutical Co., Ltd.) in a concentration of 100 IU/mL. Using a 1 ml tuberculin syringe and a 26-gauge needle (both by Terumo Co., Ltd.), eCG was subcutaneously injected into the dorsal area of female Wistar rats of 23 days old after birth (Charles River Japan, Inc.) in a dose of 10 IU/animal, during 9:00 to 10:00 AM. Following the eCG injection, the animal was grouped after 47 to 48 hours as shown below, to which groups, each drug was injected.
Group B (5 rats): Compound No. 305 was dissolved in saline at 33.3 nmol/mL and the solution was subcutaneously injected into the back in a dose of 6.7 nmol/animal.
Group C (5 rats): Compound No. 305 was dissolved in saline at […] and the solution was subcutaneously injected into the back in a dose of 2.0 nmol/animal.
Group D (5 rats): Compound No. 322 was dissolved in saline at 33.3 nmol/mL and the solution was subcutaneously injected into the back in a dose of 6.7 nmol/animal.
Group E (5 rats): Compound No. 322 was dissolved in saline at 10.0 nmol/mL and the solution was subcutaneously injected into the back in a dose of 2.0 nmol/animal.
Group F (6 rats): Saline was subcutaneously injected into the back in a dose of 200 μL/animal.
After administration of these drugs, the animal was sacrificed by decapitation after 24 to 25 hours to recover blood, bilateral oviducts and uterus. In collecting blood, 90 μl of 10 KIU/mL aprotinin solution (Trasylol, Bayer) containing 3 mg/ml EDTA had been previously filled in a tube for recovery to prevent blood clotting. After blood recovery, the blood was thoroughly blended and the mixture was centrifuged at 2,000 G for 25 minutes. After the supernatant was recovered, the product was used as a plasma sample.
The number of oocytes was counted by referring to the method described in Eur. J. Endocrinol., 138, 594-600 (1998).
Where retention of oocytes in the oviducal ampulla was confirmed by stereomicroscopic observation of the oviduct, the ampulla was punctured with a 27-gauge needle for syringe (Terumo) to retrieve the oocytes. After granulosa cells surrounding the oocytes were removed by trypsin treatment, the number of oocytes was counted. Where retention of oocytes in the oviducal ampulla was not confirmed by stereomicroscopic observation of the oviduct, a with 27-gauge needle with the polished tip for syringe was inserted into the tubal ostium and more than 400 μL of saline was flushed into the oviduct and uterine for rinsing. Then, the presence or absence of oocytes in the effluent was observed.
The blood estradiol level was measured by radioimmunoassay (DPC.Estradiol Kit, Iatron, Inc.).
The blood progesterone level was measured by radioimmunoassay (DPC.Progesterone, Iatron, Inc.).

[2] = Blood testosterone level decreasing effect in mature male rat (2 mM peptide solution, ALZET osmotic pump); format: in vivo; conditions: 2 mM peptide solution in distilled water, ALZET osmotic pump s.c., 6 days, Tables 28 and 29
Procedure: This peptide solution was filled in 5 ALZET osmotic pumps (Model 2001, 0.2 ml in volume, release rate: 0.001 ml/hr, DURECT Corporation). The ALZET pumps filled with the peptide solution were implanted subcutaneously in 5 CD(SD)IGS male rats of 9 weeks old after birth (Charles River Japan, Inc.) on the back under ether anesthesia by one pump for one animal. For negative control, distilled water (Otsuka Pharmaceutical Co., Ltd.) was filled in 5 ALZET osmotic pumps, which were similarly implanted in 5 male CD(SD)IGS rats (Charles River Japan, Inc.), respectively. These pump-implanted rats were fed for 6 days under normal feeding conditions. After weighing, the animal was decapitated to collect blood. After 0.03 ml/ml blood of aprotinin solution (Trasylol, Bayer) containing 0.1 mg/ml EDTA.2Na was added to blood, the mixture was centrifuged at 1,800 G for 25 minutes to isolate/recover plasma. From the plasma obtained, 0.05 ml was applied to radioimmunoassay (DPC.Total Testosterone Kit, Diagnostic Products Corporation) to measure the plasma testosterone level of each rat. The value below the limit of measurement (0.04 ng/ml of plasma level) in radioimmunoassay was treated as 0. A mean value of the testosterone levels from 5 rats receiving the peptide was calculated and a relative value (percent) of the mean value to a mean value from 5 rats receiving distilled water.

[3] = Blood testosterone level decreasing effect in mature male rat (0.1 mM peptide solution); format: in vivo
[4] = Action of reducing testosterone level in blood in mature male rat (1 mM peptide in 50% DMSO, ALZET osmotic pump); format: in vivo; conditions: 1 mM peptide in 50% DMSO aqueous solution, ALZET osmotic pump s.c., six days
[5] = s.c. 2.0 nmol/animal (Groups C, E)
[6] = s.c. 6.7 nmol/animal (Groups B, D)

T1 sequence (Q969F8 whole entry L364H): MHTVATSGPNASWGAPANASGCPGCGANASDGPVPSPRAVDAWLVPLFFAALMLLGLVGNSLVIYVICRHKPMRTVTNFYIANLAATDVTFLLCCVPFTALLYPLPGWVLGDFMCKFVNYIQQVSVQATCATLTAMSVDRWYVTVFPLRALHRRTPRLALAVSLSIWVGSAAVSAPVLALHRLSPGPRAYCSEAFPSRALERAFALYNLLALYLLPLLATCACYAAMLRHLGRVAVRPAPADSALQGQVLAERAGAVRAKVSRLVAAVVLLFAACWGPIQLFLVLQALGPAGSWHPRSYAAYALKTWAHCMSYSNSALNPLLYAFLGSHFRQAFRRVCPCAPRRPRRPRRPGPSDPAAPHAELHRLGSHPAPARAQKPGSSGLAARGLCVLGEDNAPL

Row | SMILES | Specific Act. (EC50/MS10 EC50) (hOT7T175) | progesterone level compared with hCG administration [1] | dose to be administered for induction of ovulation equivalent to hCG [1] | number of oocytes in average per rat [1, 5] [oocytes] | number of oocytes in average per rat [1, 6] [oocytes] | blood estradiol level [1, 5] | blood progesterone level [1, 5] | blood estradiol level [1, 6] | blood progesterone level [1, 6] | Teststerone level in Blood [2] [%] | Teststerone level in Blood [3] [%] | Testosterone level in Blood [4] [%] | rats ovulated ([1]; Group E, s.c. 2.0 mmol (so in the source) per animal)
1 | CNC(=N)NCCC[C@H](NC(=O)[C@H](CC(C)C)NC(=O)NNC(=O)[C@H](Cc1ccccc1)NC(=O)[C@H](CO)NC(=O)[C@H](CC(N)=O)NC(=O)[C@@H](Cc1ccncc1)NC(=O)[C@H](N)Cc1ccc(O)cc1)C(=O)N[C@@H](Cc1ccccc1)C(N)=O [Compound No. 305, D-Tyr-D-Pya(4)-Asn-Ser-Phe-AzaGly-Leu-Arg(Me)-Phe-NH2] (H-[dY][d4Pal]NSF[azaGly]L[Arg(Me)]F-NH2) | 2.0 | lower than in the hCG administration | at least 2.0 mmol/animal | 29.4 | 32.6 | no difference was found among Groups A, B, C and D | less than a half of the level in Group A | no difference was found among Groups A, B, C and D | less than a half of the level in Group A | 2 | 48 | 2 | 
2 | CNC(=N)NCCC[C@H](NC(=O)[C@H](CC(C)C)NC(=O)NNC(=O)[C@H](Cc1ccccc1)NC(=O)[C@H](CO)NC(=O)[C@H](CC(N)=O)NC(=O)CCc1cccnc1)C(=O)N[C@@H](Cc1ccccc1)C(N)=O [Compound No. 322, 3-(3-Pyridyl)propionyl-Asn-Ser-Phe-AzaGly-Leu-Arg(Me)-Phe-NH2] ({Propanoyl(3-(3-pyridyl))}-NSF[azaGly]L[Arg(Me)]F-NH2) | 5.4 | lower than in the hCG administration | at least 6.7 mmol/animal | 11.6 | 29.6 | tendency to show a higher level in rats with no ovulation induction | very low level | no difference was found among Groups A, B, C and D | less than a half of the level in Group A |  |  |  | 3 out of 5
